Our source for the Turfgrass height and Clip weight values is US20080227638A1, “Use of abscisic acid to enhance growth control” (priority 2007, published 2008).

Holding throughout (format): in vivo
Test [1] relates to Kentucky bluegrass cv Midnight. Kind of test: Kentucky bluegrass cv Midnight height, ABA and trinexapac-ethyl (Example 6). The conditions noted are these: 7 days after treatment. As for the experimental part: (§1) Greenhouse studies were conducted at the Research Farm of Valent BioSciences Corporation (Long Grove, Ill.). Grasses were grown in pots (18 cm in diameter and 18 cm in height) filled with Promix BX (available from Premier Horticulture Inc. Quakertown, Pa.). Grass was irrigated daily by an overhead irrigation system. The irrigation system was set up with multiple Tornado Mist Spray Heads (10 GPH at 40 PSI-Wetted diameter, NDS/Raindrip, Woodland Hills, Calif.). Spray heads were 1-meter apart from each other and 75 cm above grass canopy. Grass was cut with a scissor at 2.5 cm height and fertilizer (1 g/L all purpose fertilizer 20-20-20, available from The Scotts Company, Marysville, Ohio) was applied once per week.
Chemical solutions were prepared with distilled water. Tween 20 (0.05% v/v) was used as an, adjuvant. […]
When treated with paclobutrazol or uniconazole-P, turfgrass received irrigation within 24 hours after application to flush chemicals to the root zone. […] Turfgrass quality, turfgrass height or clip fresh weight was measured on assigned dates. […] Turfgrass height was measured as the distance between canopy surface and soil. […]
All experiments were randomized complete block experimental design. Data were analyzed by analysis of variance. […]

The test system of the next test is Tall fescue, cv K-31. The experiment in a line: Tall fescue cv K-31 height, ABA and trinexapac-ethyl (Example 6). The protocol: as §1
(§2) Chemical solutions were prepared with distilled water. Tween 20 (0.05% v/v) was used as an, adjuvant. Both trinexapac-ethyl (commercial product Primo Maxx, 11.3% active ingredient) and paclobutrazol (commercial product Trimmit 2SC, 22.3% active ingredient) were purchased from Syngenta Crop Protection Inc. (Greensboro, N.C.). Uniconazole-P (commercial product Sumagic, 0.55% active ingredient) was obtained from Valent U.S.A. Corporation (Walnut Creek, Calif.).
(§3) When treated with paclobutrazol or uniconazole-P, turfgrass received irrigation within 24 hours after application to flush chemicals to the root zone. After treatment, turfgrasses were arranged in a randomized complete block experimental design. Turfgrass quality, turfgrass height or clip fresh weight was measured on assigned dates. Turfgrass quality was visually rated on a 0-9 scale based on the color, uniformity and density of the grass with 0 as the worst and 9 as the best. Turfgrass height was measured as the distance between canopy surface and soil. Clips were collected from each plot; all plots were cut to a uniform height.
(§4) All experiments were randomized complete block experimental design. Data were analyzed by analysis of variance. Duncan's new multiple range tests at α=0.05 were used for mean separations.

The subject of test [2] is Kentucky bluegrass. The experiment in a line: Greenhouse Kentucky bluegrass height and quality, ABA and paclobutrazol (Example 2). To be noted: 200 ppm ABA. The protocol:
as §1, §2, §3, §4
Kentucky bluegrass sod (unknown variety) was purchased from Deak sod farms, Inc. (Union Grove, Wis.). Grass was grown in the greenhouse in pots (n=6 pots per treatment) for establishment before treatment. […] Turfgrass quality was evaluated at 7 days after treatment, and turfgrass height was measured at 7 and 28 days after treatment. Tween 20 (0.05% w/v) was included as an adjuvant. The turfgrass canopy was cut every 7 days during the experimental period.

For test [3], the system named is Kentucky bluegrass. The experiment in a line: Greenhouse Kentucky bluegrass height, ABA and uniconazole-P (Example 3). The conditions noted are these: 200 ppm ABA. The protocol:
as §1, §2, §3, §4
Kentucky bluegrass sod (unknown variety) was purchased from Deak sod farms, Inc. (Union Grove, Wis.). Grass was grown in the greenhouse in pots (n=6 pots per treatment) for establishment before treatment. […] Tween 20 (0.05% w/v) was included as an adjuvant. The turfgrass was cut every 7 days.

The next test has as its system creeping bentgrass. Kind of test: Golf course green creeping bentgrass height, clip weight and quality, ABA and uniconazole-P (Example 5). The conditions noted are these: 200 ppm ABA. As for the experimental part:
Field studies were conducted at the nursery green or the practice green at Countryside golf course (Mundelein, Ill.). Both greens were sand based and growing Penncross creeping bentgrass. Grass was managed with typical Illinois golf course management practices.
as §2, §3, §4
Tween 20 (0.05% w/v) was included as an adjuvant.

The next test relates to Bermudagrass. The experiment in a line: Bermudagrass clip weight, ABA and uniconazole-P (Example 7). To be noted: 200 ppm ABA; 7 days after treatment. As for the experimental part: as §2, §3, §4

Take `CCOC(=O)C1CC(=O)C(=C(O)C2CC2)C(=O)C1` (stereo not drawn) [trinexapac-ethyl]: the Turfgrass height in test [1] (80 ppm trinexapac-ethyl) came to 7.6 cm; in test [1] (160 ppm trinexapac-ethyl), 6.7 cm; in the test with Tall fescue, cv K-31 (80 ppm trinexapac-ethyl, 7 days after treatment), 11.8 cm; in the test on Tall fescue, cv K-31 (80 ppm trinexapac-ethyl, 21 days after treatment), 19.8 cm; with Tall fescue, cv K-31 (160 ppm trinexapac-ethyl, 7 days after treatment) it was 9.7 cm; with Tall fescue, cv K-31 (160 ppm trinexapac-ethyl, 21 days after treatment), 20.1 cm.

With S-abscisic acid [ABA], the Turfgrass height worked out at 11.7 cm in the test with Kentucky bluegrass [2] (7 days after treatment); 9.7 cm in the test with Kentucky bluegrass [2] (28 days after treatment); 12.3 cm in the test with Kentucky bluegrass [3] (7 days after treatment); 9.4 cm in the test on Kentucky bluegrass [3] (42 days after treatment); 5.0 cm in the test with creeping bentgrass (7 days after treatment); 4.6 cm with creeping bentgrass (49 days after treatment). Besides, the figures for the Clip weight in the test with creeping bentgrass (7 days after treatment), in the test with creeping bentgrass (49 days after treatment) and in the test on Bermudagrass were 2.0 g, 2.7 g and 1.8 g, respectively.
